Measured values reported in BindingDB's records for doi:10.1158/0008-5472.CAN-07-0320 (University Hospital Basel, 2007).

Tests used:
[1] = biological target: Serine/threonine-protein kinase pim-2 (Homo sapiens, UniProt Q9P1W9); assay: Kinase Inhibition Assay; details: pH 7.5; 25 °C
Protocol: (§1) Phosphorylation reactions were monitored using a coupled-enzyme assay in which ADP production was coupled to NADH oxidation by pyruvate kinase and lactate dehydrogenase. The assay was carried out in a buffer containing phosphoenolpyruvate, NADH, pyruvate kinase, lactate dehydrogenase, and PIM kinase. The reaction was monitored at 340 nm at 25 deg C on a Spectramax spectrophotometer (Molecular Devices) and started by addition ATP after a 10-min preincubation at 25 deg C. A recognition peptide of the PIM1 substrate p21 ([…]) was used. DMSO-dissolved inhibitors were added at the preincubation period resulting in a 2% final DMSO. Kinetic analysis was done by nonlinear regression fitting using the program KaleidaGraph (Synergy Software).

[2] = biological target: Serine/threonine-protein kinase pim-1 (Homo sapiens, UniProt P11309); assay: Kinase Inhibition Assay; details: pH 7.5; 25 °C
Protocol: as §1

Sequence of Serine/threonine-protein kinase pim-2 (Q9P1W9 whole entry): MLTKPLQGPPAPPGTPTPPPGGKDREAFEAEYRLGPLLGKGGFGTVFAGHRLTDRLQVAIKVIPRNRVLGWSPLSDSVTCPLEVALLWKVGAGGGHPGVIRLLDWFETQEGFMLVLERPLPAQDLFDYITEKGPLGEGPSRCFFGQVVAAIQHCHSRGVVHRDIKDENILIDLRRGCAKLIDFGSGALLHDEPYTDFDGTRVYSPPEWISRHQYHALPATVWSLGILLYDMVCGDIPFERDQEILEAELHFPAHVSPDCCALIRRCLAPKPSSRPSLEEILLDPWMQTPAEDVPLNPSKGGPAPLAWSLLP
Sequence of Serine/threonine-protein kinase pim-1 (P11309 whole entry): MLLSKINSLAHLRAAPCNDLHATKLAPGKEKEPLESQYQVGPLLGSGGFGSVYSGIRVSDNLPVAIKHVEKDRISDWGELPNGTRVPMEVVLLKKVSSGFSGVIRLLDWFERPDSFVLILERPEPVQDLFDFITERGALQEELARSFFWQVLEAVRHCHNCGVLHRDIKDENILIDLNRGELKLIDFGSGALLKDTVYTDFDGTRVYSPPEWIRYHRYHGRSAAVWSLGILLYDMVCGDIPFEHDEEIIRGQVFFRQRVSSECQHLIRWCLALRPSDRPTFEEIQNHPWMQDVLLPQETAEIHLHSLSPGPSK

Structure (SMILES)	IC50 [1]	IC50 [2]
CC(=O)c1cccc(-c2cnc3ccc(NCC4CC4)nn23)c1 [1-(3-{6-[(cyclopropylmethyl)amino]imidazo[1,2-a]pyridazin-3-yl}phenyl)ethan-1-one]	1.8 µM	
CCC(CO)Nc1ccc2ncc(-c3ccc(F)c(Cl)c3)n2n1 (stereo not given) [K00486]	2.5 µM	0.04 µM
Clc1cccc(-c2cnc3ccc(NC4CCOCC4)nn23)c1 [K00152]	7.1 µM	0.05 µM
